Measured values as given in patent publication US12115152B2, “Pan-RAF kinase inhibitor and use thereof” (HEFEI INSTITUTES OF PHYSICAL SCIENCE, CHINESE ACADEMY OF …, priority 2019, dated 2024).
Several values for one entry are separate records, joined by “and”; a condition that tells them apart may be missing. Equal values may be shown once. Read-outs that look alike come from different tables or passages of the source.

Test: Pharmacokinetic parameters in rats
Format: in vivo, SD rats
Conditions: rat
Procedure: In the example, SD rats (180-220 g, male) (purchased from Experimental Animal Center of Anhui Medical University, China) were used. The animals were kept in cages ventilated independently with 6 rats per cage. The feeding was performed at a temperature of 20˜26° C. and a humidity of 35-75%. The light condition was 12 hours of lighting/12 hours of darkness. The corncob bedding was refreshed once a week. The rats were fed with foods and drinking water on an ad libitum basis. The rats were marked with a number on the tails. During the experiment, the breeding and use of animals strictly follow the regulations of Association for Assessment and Accreditation of Laboratory Animal Care International.
Solutions of Compound 16 and Comparative Compound 1 were prepared as follows. 10 mg of the compound to be tested was precisely weighed into a sterile vial, and was dissolved with a small amount of DMSO, and then was made to a constant volume of 5 ml with 5% glucose solution, to give a gavage test solution at a concentration of 2 mg/mL. 0.5 ml of the above gavage test solution at a concentration of 2 mg/mL was precisely taken, and was made to constant volume of 5 ml with 4.5 ml of 5% glucose solution, to give an intravenous injection test solution at a concentration of 0.2 mg/mL. The solution was prepared immediately before being used in the experiment.
6 SD rats were randomly divided into two groups, and the synthesized compounds were administered by gavage and tail vein injection, respectively. About 0.3 mL of blood samples were collected from the retro-orbital venous plexus at 0 h before administration and at 5 min, 15 min, 30 min, 1 h, 1.5 h, 2 h, 4 h, 6 h, 9 h, 12 h, 24 h after administration for the gavage group; and at 0 h before administration and at 2 min, 5 min, 15 min, 30 min, 1 h, 2 h, 4 h, 6 h, 9 h, and 12 h after administration for the tail vein group. Each of the collected blood samples was put in a 1.5 mL centrifuge tube with heparin (Sigma, USA). The sample was centrifuged at 6000 rpm for 3 min to separate the plasma. 100 μL of plasma in the upper layer was placed into a new 1.5 mL centrifuge tube, and stored at −80° C. for determination. 10 mg of a standard for the compound to be tested was precisely weighed into a 10 mL volumetric flask, and was dissolved by adding methanol to make a constant volume and mixed uniformly, to give a 1 mg/mL stock solution. The stock solution was then diluted gradually with methanol to give a series of working solutions at concentrations of 0.01, 0.02, 0.05, 0.1, 0.2, 0.5, 1, 2, 5, 10, 20 μg/mL. The working solutions were placed in a refrigerator at 4° C. for later use. 11 centrifuge tubes were used. 10 μL of the above working solutions was respectively added to each of the centrifuge tubes, and then 90 μL of blank rat plasma was respectively added therein. The mixtures were mixed uniformly, so that the concentration of the compound in the rat plasma was 1, 2, 5, 10, 20, 50, 100, 200, 500, 1000, 2000 ng/mL. Then, 20 μL of a solution of caffeine as the internal standard (200 ng/mL) (National Institutes for Food and Drug Control, China) was added therein, and the resultant mixtures were vortexed for 10 s. Next, 400 μL of methanol was added. The resultant mixtures were vortexed for 10 min, and centrifuged at 16000 rpm for 5 min. Thereafter, 70 μL of the supernatant was placed into the inserted pipe of a sampling bottle. 5 μL of the sample was introduced for a LC-MS/MS analysis. A standard curve of the compound in the rat plasma was obtained by means of a linear regression performed by taking the ratio of the peak area of the sample to that of the internal standard As/Ais as the vertical ordinate, taking the concentration C (μg/mL) as the horizontal ordinate, and taking 1/C^2 was taken as a weighting coefficient.
To 100 μL of the rat plasma to be tested stored at −80° C., 20 μL of a caffeine solution (200 ng/mL) as the internal standard was added. The resultant mixture was vortexed for 10 s. […]

[1] = male, Sprague-Dawley, plasma, iv, 1 mg/kg, intravenous injection 1 mg/kg, average n=3
[2] = male, Sprague-Dawley, plasma, iv, 1 mg/kg, intravenous injection 1 mg/kg, individual rats #1-#3
[3] = intravenous injection 1 mg/kg, average n=3
[4] = intravenous injection 1 mg/kg, individual rats #1-#3, 1 mg/kg
[5] = oral administration (gavage) 10 mg/kg, average n=3
[6] = oral administration (gavage) 10 mg/kg, individual rats #1-#3, 10 mg/kg

SMILES: Cc1ccc(NC(=O)c2cccc(C(F)(F)F)c2)cc1-n1cc(-c2cncc(N3CCOCC3)c2)cn1 [Example 16, N-(4-methyl-3-(4-(5-morpholinopyrid-3-yl)-1H-pyrazol-1-yl)phenyl)-3-(trifluoromethyl)benzamide]
- AUC(0-inf) (male, SD, plasma, po, 10 mg/kg, oral administration (gavage) 10 mg/kg, average n=3): 11 µg·h/mL
- Tmax (male, SD, plasma, po, 10 mg/kg, oral administration (gavage) 10 mg/kg, average n=3, read-out: Tmax): 0.67 h
- half-life (male, SD, plasma, po, 10 mg/kg, oral administration (gavage) 10 mg/kg, average n=3, read-out: T½ (converted)): 3.02 h
- AUC(0-inf) (male, SD, plasma, po, 10 mg/kg, oral administration (gavage) 10 mg/kg, individual rats #1-#3): 13.5 µg·h/mL
- AUC0-t (male, SD, plasma, po, 10 mg/kg, oral administration (gavage) 10 mg/kg, individual rats #1-#3, read-out: AUC0-t): 13.4 µg·h/mL
- Tmax (male, SD, plasma, po, 10 mg/kg, oral administration (gavage) 10 mg/kg, individual rats #1-#3, read-out: Tmax): 0.5 h
- half-life (male, SD, plasma, po, 10 mg/kg, oral administration (gavage) 10 mg/kg, individual rats #1-#3, read-out: T½ (converted)): 3.19 h
- AUC(0-inf) [1]: 0.765 µg·h/mL
- clearance [1]: 1.32 L/h/kg
- AUC0-t (male, Sprague-Dawley, plasma, iv, 1 mg/kg, intravenous injection 1 mg/kg, average n=3, read-out: AUC0-t): 0.742 µg·h/mL
- C0 (male, Sprague-Dawley, plasma, iv, 1 mg/kg, intravenous injection 1 mg/kg, average n=3, read-out: C0): 1.12 µg/mL
- Cmax (male, Sprague-Dawley, plasma, iv, 1 mg/kg, intravenous injection 1 mg/kg, average n=3, read-out: Cmax): 0.914 µg/mL
- MRT last (male, Sprague-Dawley, plasma, iv, 1 mg/kg, intravenous injection 1 mg/kg, average n=3, read-out: MRT0-t): 1.89 h
- MRT inf (male, Sprague-Dawley, plasma, iv, 1 mg/kg, intravenous injection 1 mg/kg, average n=3, read-out: MRT0-∞): 2.33 h
- Tmax (male, Sprague-Dawley, plasma, iv, 1 mg/kg, intravenous injection 1 mg/kg, average n=3, read-out: Tmax): 0.033 h
- half-life (male, Sprague-Dawley, plasma, iv, 1 mg/kg, intravenous injection 1 mg/kg, average n=3, read-out: T½ (converted)): 3.01 h
- Vd (male, Sprague-Dawley, plasma, iv, 1 mg/kg, intravenous injection 1 mg/kg, average n=3, read-out: Vz): 5.66 L/kg
- AUC(0-inf) [2]: 0.861 µg·h/mL
- clearance [2]: 1.16 L/h/kg
- AUC0-t (male, Sprague-Dawley, plasma, iv, 1 mg/kg, intravenous injection 1 mg/kg, individual rats #1-#3, read-out: AUC0-t): 0.822 µg·h/mL
- C0 (male, Sprague-Dawley, plasma, iv, 1 mg/kg, intravenous injection 1 mg/kg, individual rats #1-#3, read-out: C0): 1.31 µg/mL
- Cmax (male, Sprague-Dawley, plasma, iv, 1 mg/kg, intravenous injection 1 mg/kg, individual rats #1-#3, read-out: Cmax): 1.02 µg/mL
- MRT last (male, Sprague-Dawley, plasma, iv, 1 mg/kg, intravenous injection 1 mg/kg, individual rats #1-#3, read-out: MRT0-t): 2.08 h
- MRT inf (male, Sprague-Dawley, plasma, iv, 1 mg/kg, intravenous injection 1 mg/kg, individual rats #1-#3, read-out: MRT0-∞): 2.75 h
- Tmax (male, Sprague-Dawley, plasma, iv, 1 mg/kg, intravenous injection 1 mg/kg, individual rats #1-#3, read-out: Tmax): 0.033 h
- half-life (male, Sprague-Dawley, plasma, iv, 1 mg/kg, intravenous injection 1 mg/kg, individual rats #1-#3, read-out: T½ (converted)): 3.59 h
- Vd (male, Sprague-Dawley, plasma, iv, 1 mg/kg, intravenous injection 1 mg/kg, individual rats #1-#3, read-out: Vz): 6.01 L/kg
- bioavailability (male, Sprague-Dawley, plasma, oral, 10 mg/kg, oral administration (gavage) 10 mg/kg vs intravenous 1 mg/kg, average n=3, read-out: F (oral bioavailability)): 144%
- AUC0-t (male, Sprague-Dawley, plasma, po, 10 mg/kg, oral administration (gavage) 10 mg/kg, average n=3, read-out: AUC0-t): 10.9 µg·h/mL
- Cmax (male, Sprague-Dawley, plasma, po, 10 mg/kg, oral administration (gavage) 10 mg/kg, average n=3, read-out: Cmax): 1.48 µg/mL
- MRT last (male, Sprague-Dawley, plasma, po, 10 mg/kg, oral administration (gavage) 10 mg/kg, average n=3, read-out: MRT0-t): 6.62 h
- MRT inf (male, Sprague-Dawley, plasma, po, 10 mg/kg, oral administration (gavage) 10 mg/kg, average n=3, read-out: MRT0-∞): 6.81 h
- MRT last (male, Sprague-Dawley, plasma, po, 10 mg/kg, oral administration (gavage) 10 mg/kg, individual rats #1-#3, read-out: MRT0-t): 5.99 h
- MRT inf (male, Sprague-Dawley, plasma, po, 10 mg/kg, oral administration (gavage) 10 mg/kg, individual rats #1-#3, read-out: MRT0-∞): 6.19 h
- AUMC0-t [3]: 1413 hr*hr*ng/ml
- AUMC0-∞ [3]: 1805 hr*hr*ng/ml
- AUC0-t [4]: 0.68 µg·h/mL and 0.723 µg·h/mL
- AUC0-∞ [4]: 0.694 µg·h/mL and 0.742 µg·h/mL
- AUMC0-t [4]: 1708 hr*hr*ng/ml and 1207 hr*hr*ng/ml and 1326 hr*hr*ng/ml
- AUMC0-∞ [4]: 2368 hr*hr*ng/ml and 1418 hr*hr*ng/ml and 1630 hr*hr*ng/ml
- C0 [4]: 0.933 µg/mL and 1.116 µg/mL
- Cl [4]: 1.442 L/h/kg and 1.348 L/h/kg
- Cmax [4]: 0.796 µg/mL and 0.925 µg/mL
- MRT0-t [4]: 1.77 h and 1.83 h
- MRT0-∞ [4]: 2.04 h and 2.20 h
- T½ [4]: 2.62 h and 2.84 h
- Vz [4]: 5.441 L/kg and 5.521 L/kg
- F (oral bioavailability) (oral administration (gavage) 10 mg/kg vs intravenous 1 mg/kg, individual rats #1-#3): 176.1% and 157.7% and 98.3%
- AUMC0-t [5]: 70219 hr*hr*ng/ml
- AUMC0-∞ [5]: 72777 hr*hr*ng/ml
- Cl [5]: 0.967 L/h/kg
- Vz [5]: 4.204 L/kg
- AUC0-t [6]: 11.999 µg·h/mL and 7.435 µg·h/mL
- AUC0-∞ [6]: 12.067 µg·h/mL and 7.52 µg·h/mL
- AUMC0-t [6]: 80004 hr*hr*ng/ml and 72172 hr*hr*ng/ml and 58480 hr*hr*ng/ml
- AUMC0-∞ [6]: 83364 hr*hr*ng/ml and 74076 hr*hr*ng/ml and 60891 hr*hr*ng/ml
- Cl [6]: 0.742 L/h/kg and 0.829 L/h/kg and 1.33 L/h/kg
- Cmax [6]: 2.09 µg/mL and 1.71 µg/mL and 0.645 µg/mL
- MRT0-t [6]: 6.01 h and 7.87 h
- MRT0-∞ [6]: 6.14 h and 8.10 h
- Tmax [6]: 1 h
- T½ [6]: 2.86 h and 3.01 h
- Vz [6]: 3.418 L/kg and 3.42 L/kg and 5.773 L/kg
